Values of other authors in US8980299B2, “Method of making a vascular closure device” (Cordis Corporation, priority 2007, dated 2015).

System: S. aureus
Conditions: suitable growth medium; Bhargava et al., Am J Infect Control, June 1996

Oc1cc(Cl)ccc1Oc1ccc(Cl)cc1Cl [2,4,4′-trichloro-2′hydroxydiphenyl ether, 2,4,4′-trichloro-2′-hydroxydiphenyl ether]
minimum inhibitory concentration (MIC) against S. aureus: 0.01 ppm
